Assay results reported in publication PMC6858497 (The Journal of physiology, 2019).
Several values for one entry are separate records, joined by “and”; a condition that tells them apart may be missing. Identical values can stand only once.

How the values were obtained:
[1] = biological target: GluN1–1a DC1/DC2 (Rattus norvegicus, UniProt P35439+Q00959+Q62645, R869K/V866F); assay: Outside-out patch-clamp recordings, fast application; format: cell-based
[2] = biological target: GluN1–1b A/A (GluN1/2A/2A) (Rattus norvegicus, UniProt P35439+Q00959); assay: as above; format: cell-based
[3] = biological target: GluN1–1b AC1/AC2 (Rattus norvegicus, UniProt P35439+Q00959); assay: as above; format: cell-based
[4] = biological target: GluN1–1b DC1/DC2 (Rattus norvegicus, UniProt P35439+Q00959+Q62645, R869K/V866F); assay: as above; format: cell-based
[5] = biological target: GluN1–1a BC1/DC2 (Rattus norvegicus, UniProt P35439+Q00959+Q00960+Q62645, A876H/F846L/G856D/H848F/K857R/M851T/M860L/Q845K/R869K/V861L/V866F); assay: as above; format: cell-based
[6] = biological target: GluN1–1b BC1/DC2 (Rattus norvegicus, UniProt P35439+Q00959+Q00960+Q62645, A876H/F846L/G856D/H848F/K857R/M851T/M860L/Q845K/R869K/V861L/V866F); assay: as above; format: cell-based
[7] = biological target: GluN1–1a/2D (Rattus norvegicus, UniProt P35439+Q62645); assay: Two-electrode voltage-clamp recordings, Xenopus oocytes; format: cell-based
[8] = biological target: GluN1–1b AC1/BC2 (Rattus norvegicus, UniProt P35439+Q00959+Q00960, A876H/F846L/G856D/H848F/K857R/M851T/M860L/Q845K/V861L); assay: Outside-out patch-clamp recordings, fast application; format: cell-based
[9] = biological target: GluN1–1b D/D (Rattus norvegicus, UniProt P35439+Q62645); assay: as above; format: cell-based
[10] = biological target: GluN1–1a/2B (Rattus norvegicus, UniProt P35439+Q00960); assay: Two-electrode voltage-clamp recordings, Xenopus oocytes; format: cell-based; details: isoform 1a
Sequence of GluN1–1a/2B (Q00960 27-1482, other chains not shown): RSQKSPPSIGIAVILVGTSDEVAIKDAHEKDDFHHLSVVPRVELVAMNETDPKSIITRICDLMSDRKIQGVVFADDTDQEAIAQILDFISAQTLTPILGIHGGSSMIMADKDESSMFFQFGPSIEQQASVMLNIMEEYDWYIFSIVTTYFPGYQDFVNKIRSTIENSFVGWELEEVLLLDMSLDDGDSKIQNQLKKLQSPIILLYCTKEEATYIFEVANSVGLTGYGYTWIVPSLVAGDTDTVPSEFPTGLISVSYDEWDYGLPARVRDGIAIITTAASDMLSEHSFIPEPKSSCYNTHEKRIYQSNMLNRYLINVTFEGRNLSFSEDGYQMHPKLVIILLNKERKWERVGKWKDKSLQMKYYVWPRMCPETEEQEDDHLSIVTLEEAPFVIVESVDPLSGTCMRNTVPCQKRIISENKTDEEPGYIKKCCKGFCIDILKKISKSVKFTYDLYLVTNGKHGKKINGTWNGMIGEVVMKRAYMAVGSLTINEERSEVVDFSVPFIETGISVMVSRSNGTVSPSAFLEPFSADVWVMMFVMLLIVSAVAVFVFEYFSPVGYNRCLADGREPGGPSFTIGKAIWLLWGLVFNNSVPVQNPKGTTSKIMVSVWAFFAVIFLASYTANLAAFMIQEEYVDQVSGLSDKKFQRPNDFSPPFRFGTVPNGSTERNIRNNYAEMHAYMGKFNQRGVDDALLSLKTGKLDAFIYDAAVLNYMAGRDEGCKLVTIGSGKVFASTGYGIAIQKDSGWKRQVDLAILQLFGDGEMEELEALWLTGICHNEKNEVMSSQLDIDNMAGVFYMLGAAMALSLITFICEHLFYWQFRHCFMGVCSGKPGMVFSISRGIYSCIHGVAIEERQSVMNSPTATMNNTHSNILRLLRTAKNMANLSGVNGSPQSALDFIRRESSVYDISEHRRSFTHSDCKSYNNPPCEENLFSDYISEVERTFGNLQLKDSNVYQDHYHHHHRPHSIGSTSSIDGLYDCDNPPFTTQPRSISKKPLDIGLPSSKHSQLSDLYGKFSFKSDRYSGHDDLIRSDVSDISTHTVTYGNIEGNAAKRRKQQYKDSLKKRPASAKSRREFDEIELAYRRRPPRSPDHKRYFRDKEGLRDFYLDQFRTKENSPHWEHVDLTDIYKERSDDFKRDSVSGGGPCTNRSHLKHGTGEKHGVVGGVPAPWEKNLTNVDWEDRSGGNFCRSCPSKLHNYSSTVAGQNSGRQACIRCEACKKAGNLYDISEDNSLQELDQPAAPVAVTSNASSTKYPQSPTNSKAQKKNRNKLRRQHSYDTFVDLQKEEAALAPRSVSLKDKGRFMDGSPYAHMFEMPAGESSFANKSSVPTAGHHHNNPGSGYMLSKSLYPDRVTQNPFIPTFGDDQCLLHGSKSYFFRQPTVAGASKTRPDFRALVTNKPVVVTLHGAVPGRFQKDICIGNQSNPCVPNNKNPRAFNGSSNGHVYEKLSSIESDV

[11] = biological target: GluN1–1a AC1/AC2 (GluN1/2AC1/2AC2) (Rattus norvegicus, UniProt P35439+Q00959); assay: Outside-out patch-clamp recordings, fast application; format: cell-based
[12] = biological target: GluN1–1a D/D (Rattus norvegicus, UniProt P35439+Q62645); assay: as above; format: cell-based
[13] = biological target: GluN1–1a/2BC1/2DC2 (Rattus norvegicus, UniProt P35439+Q00959+Q00960+Q62645, A876H/F846L/G856D/H848F/K857R/M851T/M860L/Q845K/R869K/V861L/V866F); assay: Two-electrode voltage-clamp recordings, Xenopus oocytes; format: cell-based; details: isoform 1a
[14] = biological target: GluN1–1b BC1/BC2 (Rattus norvegicus, UniProt P35439+Q00959+Q00960, A876H/F846L/G856D/H848F/K857R/M851T/M860L/Q845K/V861L); assay: Outside-out patch-clamp recordings, fast application; format: cell-based
[15] = biological target: GluN1–1a BC1/BC2 (Rattus norvegicus, UniProt P35439+Q00959+Q00960, A876H/F846L/G856D/H848F/K857R/M851T/M860L/Q845K/V861L); assay: as above; format: cell-based
[16] = biological target: GluN1–1a AC1/BC2 (Rattus norvegicus, UniProt P35439+Q00959+Q00960, A876H/F846L/G856D/H848F/K857R/M851T/M860L/Q845K/V861L); assay: as above; format: cell-based
[17] = biological target: GluN1–1b B/B (Rattus norvegicus, UniProt P35439+Q00960); assay: as above; format: cell-based
Sequence of GluN1–1b B/B (Q00960 27-1482, other chains not shown): as above

[18] = biological target: GluN1–1a B/B (Rattus norvegicus, UniProt P35439+Q00960); assay: as above; format: cell-based
Sequence of GluN1–1a B/B (Q00960 27-1482, other chains not shown): as above

[19] = biological target: GluN1–1a A/A (GluN1/2A/2A) (Rattus norvegicus, UniProt P35439+Q00959); assay: as above; format: cell-based
[20] = system: NMDA receptors in cerebellar Golgi cells (thought to be mainly GluN1/2B/2D); details: single-channel recordings, outside-out patches; ref Brickley et al., 2003; cited from earlier work
[21] = biological target: GluN1–1b/2BC1/2DC2 (Rattus norvegicus, UniProt P35439+Q00959+Q00960+Q62645, A876H/F846L/G856D/H848F/K857R/M851T/M860L/Q845K/R869K/V861L/V866F); assay: Two-electrode voltage-clamp recordings, Xenopus oocytes; format: cell-based; details: isoform 1b
[22] = biological target: GluN1–1b/2B (Rattus norvegicus, UniProt P35439+Q00960); assay: as above; format: cell-based; details: isoform 1b
[23] = 1 mM glutamate 3–5 ms, 100 μM glycine
[24] = deactivation, two-exponential fit
[25] = fitted percentage of the fast component
[26] = weighted deactivation time constant
[27] = deactivation, single-exponential fit

N[C@@H](CCC(=O)O)C(=O)O [glutamate]
rise time (10–90%) [1, 23]: 8.6 ± 4.8 ms | τfast [1, 24]: 527 ± 225 ms | τslow [1, 24]: 6912 ± 848 ms | % fast [1, 25]: 17 ± 7% | τw [1, 26]: 5700 ± 560 ms and 5700 ± 561 ^*^,# ms | rise time (10–90%) [2, 23]: 4.8 ± 0.3 ms | τfast [2, 27]: 56 ± 6 ms | τw [2, 26]: 56 ± 6^#,$ ms | rise time (10–90%) [3, 23]: 6.3 ± 2.8 ms | τfast [3, 27]: 53 ± 7 ms | τw [3, 26]: 53 ± 7^#,$ ms | rise time (10–90%) [4, 23]: 4.5 ± 0.7 ms | τfast [4, 24]: 256 ± 92 ms | τslow [4, 24]: 1399 ± 141 ms | % fast [4, 25]: 14 ± 4% | τw [4, 26]: 1230 ± 90 ms and 1230 ± 86 ^*^,# ms | rise time (10–90%) [5, 23]: 10.9 ± 2.5 ms | τfast [5, 24]: 516 ± 42 ms | τslow [5, 24]: 3521 ± 446 ms | % fast [5, 25]: 54 ± 6% | τw [5, 26]: 1770 ± 120 ms and 1767 ± 117 ^*^,#,$ ms | rise time (10–90%) [6, 23]: 9.2 ± 1.3 ms | τfast [6, 24]: 127 ± 31 ms | τslow [6, 24]: 634 ± 132 ms | % fast [6, 25]: 50 ± 15% | τw [6, 26]: 290 ± 120 ms and 288 ± 22 ^*^,#,$ ms | EC50 ([7]; GluN1 isoform 1a, glutamate with 100 μM glycine, glycine with 300 μM glutamate): 270 ± 10 nM | nH (Hill coefficient) ([7]; agonist concentration-response, isoform 1a): 1.7 | rise time (10–90%) [8, 23]: 3.7 ± 0.5 ms | τfast [8, 24]: 47 ± 4 ms | τslow [8, 24]: 160 ± 25 ms | % fast [8, 25]: 69 ± 12% | τw [8, 26]: 74 ± 5 ^*^,#,$ ms | rise time (10–90%) [9, 23]: 3.5 ± 0.4 ms | τfast [9, 24]: 245 ± 32 ms | τslow [9, 24]: 1609 ± 148 ms | % fast [9, 25]: 40 ± 7% | τw [9, 26]: 992 ± 68 ^*^,# ms | nH (Hill coefficient) ([10]; agonist concentration-response): 1.6 | rise time (10–90%) [11, 23]: 4.2 ± 0.9 ms | τfast [11, 27]: 78 ± 13 ms | τw [11, 26]: 78 ± 13 ^*^,#,$ ms | rise time (10–90%) [12, 23]: 6.2 ± 0.7 ms | τfast [12, 24]: 832 ± 146 ms | τslow [12, 24]: 7436 ± 890 ms | % fast [12, 25]: 24 ± 3% | τw [12, 26]: 5714 ± 458 ^*^,# ms | nH (Hill coefficient) ([13]; agonist concentration-response): 1.4 | rise time (10–90%) [14, 23]: 8.3 ± 1.6 ms | τfast [14, 24]: 101 ± 15 ms | τslow [14, 24]: 360 ± 89 ms | % fast [14, 25]: 84 ± 6% | τw [14, 26]: 140 ± 10 ms and 138 ± 13 ^*^,$ ms | rise time (10–90%) [15, 23]: 15.1 ± 2.7 ms | τfast [15, 24]: 205 ± 35 ms | τslow [15, 24]: 1045 ± 129 ms | % fast [15, 25]: 58 ± 8% | τw [15, 26]: 530 ± 60 ms and 533 ± 58 ^*^,$ ms | rise time (10–90%) [16, 23]: 10.9 ± 6.2 ms | τfast [16, 24]: 93 ± 27 ms | τslow [16, 24]: 180 ± 62 ms | % fast [16, 25]: 63 ± 19% | τw [16, 26]: 140 ± 10 ^*^,#,$ ms | rise time (10–90%) [17, 23]: 10.3 ± 1.5 ms | τfast [17, 24]: 81 ± 8 ms | τslow [17, 24]: 208 ± 49 ms | % fast [17, 25]: 58 ± 12% | τw [17, 26]: 155 ± 19 ^*^,$ ms | rise time (10–90%) [18, 23]: 14.9 ± 1.2 ms | τfast [18, 24]: 240 ± 23 ms | τslow [18, 24]: 1020 ± 72 ms | % fast [18, 25]: 59 ± 5% | τw [18, 26]: 548 ± 45 ^*^,$ ms | rise time (10–90%) [19, 23]: 3.9 ± 0.3 ms | τfast ([19]; deactivation, single-exponential fit, 1 mM glutamate 3–5 ms, 100 μM glycine): 87 ± 7 ms | τw [19, 26]: 87 ± 7^#,$ ms

CC(C(O)c1ccc(O)cc1)N1CCC(Cc2ccccc2)CC1 (centres unmarked) [ifenprodil]
IC50 [20]: 129 nM | maximal inhibition [20]: 71.5% | nH (Hill coefficient) ([21]; inhibition): 1.1 | maximal inhibition [21]: 69% | nH (Hill coefficient) ([10]; inhibition): 1.1 | maximal inhibition [10]: ~ 95% | nH (Hill coefficient) ([22]; inhibition): 1.8 | maximal inhibition [22]: 88% | nH (Hill coefficient) ([13]; inhibition): 1.1 | maximal inhibition [13]: ~ 65%
